In ChEMBL document CHEMBL1124625, “Flavones. 2. Synthesis and structure-activity relationship of flavodilol and its analogues, a novel class of antihypertensive agents with catecholamine depleting properties” (J Med Chem, 1989):
Calls of active or inactive are those of the source. No cut-off for these calls is given here.

How the values were obtained:
[1] = system: Rattus norvegicus; assay: Compound was evaluated for % decrease in hypothalamus norepinephrine in anesthetized spontaneously hypertensive rats(SHR) at 24 hours after administration of 35 mg/kg dose perorally; assay type: functional; conditions: route oral
[2] = system: Rattus norvegicus; assay: Compound was evaluated for % decrease in heart norepinephrine in anesthetized spontaneously hypertensive rats(SHR) at 24 hours after administration of 35 mg/kg dose perorally; assay type: functional; conditions: route oral
[3] = system: Rattus norvegicus; assay: Compound was evaluated for % decrease in adrenal epinephrine in anesthetized spontaneously hypertensive rats(SHR) at 24 hours after administration of 35 mg/kg dose perorally; assay type: functional; conditions: route oral
[4] = system: Rattus norvegicus; assay: Systolic blood pressure (SBP) in anesthetized spontaneously hypertensive rats(SHR) at 7.5 hours after administration of 30 mg/kg dose intravenously; NS is not statistically significant; assay type: functional, organism-based; set-up: dose 30 mg/kg
[5] = system: Rattus norvegicus; assay: Systolic blood pressure (SBP) in anesthetized spontaneously hypertensive rats(SHR) before administration of 30 mg/kg dose intravenously; assay type: functional; conditions: route intravenous
[6] = system: Rattus norvegicus; assay: Systolic blood pressure (SBP) in anesthetized spontaneously hypertensive rats(SHR) at 7.5 hours after administration of 75 mg/kg dose perorally; NS is not statistically significant.
[7] = system: Rattus norvegicus; assay: Systolic blood pressure (SBP) in anesthetized spontaneously hypertensive rats (SHR) before administration of 75 mg/kg dose perorally.; assay type: functional; set-up: unit: mmHg; conditions: route oral
[8] = system: Rattus norvegicus; assay: Systolic blood pressure (SBP) in anesthetized spontaneously hypertensive rats(SHR) at 7.5 hours after administration of 75 mg/kg dose perorally; assay type: functional; conditions: route oral
[9] = system: Rattus norvegicus; assay: Systolic blood pressure (SBP) in anesthetized spontaneously hypertensive rats(SHR) at 7.5 hours after administration of 75 mg/kg dose perorally; NS is not statistically significant
[10] = system: Rattus norvegicus; assay: Systolic blood pressure (SBP) in anesthetized spontaneously hypertensive rats(SHR) at 7.5 hours after administration of 35 mg/kg dose perorally; assay type: functional; conditions: route oral
[11] = system: Rattus norvegicus; assay: Systolic blood pressure (SBP) in anesthetized spontaneously hypertensive rats(SHR) before administration of 35 mg/kg dose perorally; assay type: functional; set-up: unit not given here; conditions: route oral
[12] = biological target: Adrenergic receptor beta (Rattus norvegicus, UniProt P18090+P10608+P26255)
Description: Inhibition constant from beta adrenergic receptor binding assay

[13] = species: Cavia porcellus; assay: Inhibition of the isoproterenol response at a dose of 1 x 10e -4M in guinea pig; slight inhibition was found; assay type: functional, organism-based
[14] = species: Cavia porcellus; assay: Inhibition of the isoproterenol response at a dose of 1 x 10e -4M in guinea pig; slight inhibition was found.; assay type: functional, organism-based
[15] = system: Rattus norvegicus; assay: Systolic blood pressure (SBP) in anesthetized spontaneously hypertensive rats(SHR) at 7.5 hours after administration of 17 mg/kg dose perorally; assay type: functional; conditions: route oral
[16] = system: Rattus norvegicus; assay: Systolic blood pressure (SBP) in anesthetized spontaneously hypertensive rats(SHR) before administration of 17 mg/kg dose perorally; assay type: functional; conditions: route oral
[17] = system: Rattus norvegicus; assay: Systolic blood pressure (SBP) in anesthetized spontaneously hypertensive rats(SHR) at 7.5 hours after administration of 35 mg/kg dose perorally; NS is not statistically significant
[18] = system: Rattus norvegicus; assay: Systolic blood pressure (SBP) in anesthetized spontaneously hypertensive rats(SHR) before administration of 150 mg/kg dose perorally; assay type: functional; conditions: route oral
[19] = system: Rattus norvegicus; assay: Systolic blood pressure (SBP) in anesthetized spontaneously hypertensive rats(SHR) at 7.5 hours after administration of 75 mg/kg dose perorally; value not statistically significant.; assay type: functional; conditions: route oral

CCCNCC(O)COc1ccc2c(=O)c(-c3ccccc3)c(-c3ccccc3)oc2c1 (configuration not stated)
Decrease [1]: 12% | Decrease [2]: 100% | Decrease [3]: 10%

CCCNCC(O)COc1cccc2oc(-c3ccccc3)cc(=O)c12 (configuration not stated)
Decrease in Systolic blood pressure [4]: Not significant | Systolic blood pressure [5]: 157

CC(C)NCC(O)COc1ccc2c(=O)cc(-c3cccc(Cl)c3)oc2c1 (configuration not stated)
Decrease in Systolic blood pressure [6]: Not significant | Systolic blood pressure [7]: 200

CC(C)NCC(O)COc1cc(O)c2c(=O)cc(-c3ccccc3)oc2c1 (configuration not stated)
Systolic blood pressure [7]: 195 | Decrease in Systolic blood pressure [8]: 15%

CC(C)NCC(O)COc1ccc2c(=O)c(Cc3ccccc3)c(-c3ccccc3)oc2c1 (configuration not stated)
Decrease in Systolic blood pressure [9]: Not significant | Systolic blood pressure [7]: 200

CC(C)NCC(O)COc1ccc2c(=O)cc(-c3ccccc3Cl)oc2c1 (configuration not stated)
Decrease in Systolic blood pressure [10]: 18% | Systolic blood pressure [11]: 192

CC(C)NCC(O)COc1ccc2c(=O)cc(-c3ccc(Cl)cc3)oc2c1 (configuration not stated)
Decrease in Systolic blood pressure [10]: 19% | Systolic blood pressure [11]: 192

CC(C)[N+](C)(C)CC(O)COc1ccc2c(=O)cc(-c3ccccc3)oc2c1.[I-] (configuration not stated)
Decrease in Systolic blood pressure [9]: Not significant | Systolic blood pressure [7]: 200

Cc1cc(=O)c2ccc(OCC(O)CNC(C)C)cc2o1 (configuration not stated)
Decrease in Systolic blood pressure [6]: inactive | Ki [12]: 23000 nM | Systolic blood pressure [7]: 196

CC(C)NCCCOc1ccc2c(=O)cc(-c3ccccc3)oc2c1
Decrease in Systolic blood pressure [9]: Not significant | Systolic blood pressure [7]: 204

CCNCC(O)COc1ccc2c(=O)cc(-c3ccccc3)oc2c1 (configuration not stated)
Ki [12]: 7500 nM | Decrease in Systolic blood pressure [10]: 16% | Systolic blood pressure [11]: 186

Cc1c(-c2ccccc2)oc2cc(OCC(O)CNC(C)C)ccc2c1=O (configuration not stated)
Decrease in Systolic blood pressure [10]: 10% | Systolic blood pressure [7]: 208 | Decrease in Systolic blood pressure [8]: 27% | Systolic blood pressure [11]: 206 | Activity [13]: slight inhibition was found

CC(C)NCC(O)COc1ccc2c(=O)cc(-c3ccc([N+](=O)[O-])cc3)oc2c1 (configuration not stated)
Decrease in Systolic blood pressure [6]: Not significant | Systolic blood pressure [7]: 202

O=c1cc(-c2ccccc2)oc2cc(OCC(O)CNCc3ccccc3)ccc12 (configuration not stated)
Decrease in Systolic blood pressure [6]: Not significant | Systolic blood pressure [7]: 223

CCCNCC(O)COc1ccc2c(=O)c(Cc3ccccc3)c(-c3ccccc3)oc2c1 (configuration not stated)
Systolic blood pressure [7]: 198 | Decrease in Systolic blood pressure [8]: 14%

O=c1cc(-c2ccccc2)oc2cc(OCC(O)CNCC(O)COc3ccccc3)ccc12 (configuration not stated)
Decrease in Systolic blood pressure [9]: Not significant | Systolic blood pressure [7]: 198

O=c1cc(-c2ccccc2)oc2cc(OCC(O)CN3CCN(c4ccccc4)CC3)ccc12 (configuration not stated)
Decrease in Systolic blood pressure [6]: Not significant | Systolic blood pressure [7]: 217

Cc1ccc(-c2cc(=O)c3ccc(OCC(O)CNC(C)C)cc3o2)cc1 (configuration not stated)
Decrease in Systolic blood pressure [6]: Not significant | Systolic blood pressure [7]: 196

O=c1cc(-c2ccccc2)oc2cc(OCC(O)CNC3CCS(=O)(=O)C3)ccc12 (configuration not stated)
Decrease in Systolic blood pressure [9]: Not significant | Systolic blood pressure [7]: 196

O=c1cc(-c2ccccc2)oc2cc(OCC(O)CNCCO)ccc12 (configuration not stated)
Decrease in Systolic blood pressure [6]: Not significant | Systolic blood pressure [7]: 189

O=c1cc(-c2ccccc2)oc2cc(O)ccc12 [7-HYDROXYFLAVONE]
Systolic blood pressure [7]: 217

O=c1cc(-c2ccccc2)oc2cc(OCC(O)CNC3CC3)ccc12 (configuration not stated)
Ki [12]: 1500 nM | Decrease in Systolic blood pressure [10]: 31% | Activity [14]: Weak activity | Systolic blood pressure [7]: 196 | Decrease in Systolic blood pressure [8]: 32% | Decrease in Systolic blood pressure [15]: 21% | Systolic blood pressure [11]: 198 | Systolic blood pressure [16]: 197

CCCNCC(COc1ccc2c(=O)cc(-c3ccccc3)oc2c1)OC(=O)c1ccccc1 (configuration not stated)
Systolic blood pressure [7]: 187 | Decrease in Systolic blood pressure [8]: 22.5%

CC(C)N(Cc1ccccc1)CC(O)COc1ccc2c(=O)cc(-c3ccccc3)oc2c1 (configuration not stated)
Decrease in Systolic blood pressure [6]: Not significant | Systolic blood pressure [7]: 200

CNCC(O)COc1ccc2c(=O)cc(-c3ccccc3)oc2c1 (configuration not stated)
Systolic blood pressure [11]: 190 | Decrease in Systolic blood pressure [17]: Not significant

CC(C)NCC(O)COc1cccc2ccccc12 (configuration not stated) [PROPRANOLOL]
Decrease in Systolic blood pressure [9]: inactive | Systolic blood pressure [7]: 212

CCCCNCC(O)COc1ccc2c(=O)cc(-c3ccccc3)oc2c1 (configuration not stated)
Decrease in Systolic blood pressure [10]: 26% | Systolic blood pressure [11]: 202

NCC(O)COc1ccc2c(=O)cc(-c3ccccc3)oc2c1 (configuration not stated)
Decrease in Systolic blood pressure [9]: Not significant | Systolic blood pressure [7]: 187

CC(C)NCC(O)COc1cccc2c(=O)cc(-c3ccccc3)oc12 (configuration not stated)
Ki [12]: 7.5 nM | Systolic blood pressure [7]: 209

CC(C)NCC(O)COc1ccc2oc(-c3ccccc3)cc(=O)c2c1 (configuration not stated)
Ki [12]: 2200 nM | Systolic blood pressure [7]: 199 | Decrease in Systolic blood pressure [8]: 12% | Activity [13]: Weak activity

CC(C)(C)NCC(O)COc1ccc2c(=O)cc(-c3ccccc3)oc2c1 (configuration not stated)
Ki [12]: 18000 nM | Systolic blood pressure [18]: 201

COc1ccc(-c2cc(=O)c3ccc(OCC(O)CNC(C)C)cc3o2)cc1 (configuration not stated)
Systolic blood pressure [7]: 198 | Decrease in Systolic blood pressure [19]: 10%

O=c1cc(-c2ccccc2)oc2cc(OCC3CO3)ccc12 (configuration not stated)
Systolic blood pressure [7]: 120

CC(C)NCC(O)COc1ccc2c(c1)OC(c1ccccc1)CC2=O (configuration not stated)
Decrease in Systolic blood pressure [9]: Not significant | Systolic blood pressure [7]: 198

COc1ccc(CCNCC(O)COc2ccc3c(=O)cc(-c4ccccc4)oc3c2)cc1OC (configuration not stated)
Decrease in Systolic blood pressure [6]: Not significant | Systolic blood pressure [7]: 204
